pIC50: −log10 of the molar value. Values after ≈ are worked out from the molar mass of the structure shown. “Also recorded” adds a separate entry of the source.
Experiments:
C. albicans (CaSS1) = experiment: C. albicans growth inhibition, two-fold dose-response assay; details: for MIC80: Candida albicans, 48 h, read-out: C. albicans MIC80; for whole-cell antifungal activity against C. albicans: RPMI, 37 °C, 5% CO2
[1] = Mouse liver microsomal stability assay; details: mouse liver microsomes; for remaining at 0.5 h, 1 µM: mouse
human CK1α = human CK1α (Homo sapiens, UniProt P48729); experiment: HsCK1α kinase inhibition assay; type: biochemical
[2] = test system: C. albicans Yck2 kinase domain; experiment: biochemical; type: biochemical, Candida albicans; details: Ratio of HsCK1α IC50 / CaYck2 IC50
[3] = target: T1, C. albicans Yck2 kinase domain (Candida albicans, UniProt A0A1D8PKB4); experiment: biochemical; type: biochemical; details: for CaYck2 IC50: two-fold dose-response up to 1 µM, ATP 20 μM (Km)
T1 sequence (A0A1D8PKB4 37-345): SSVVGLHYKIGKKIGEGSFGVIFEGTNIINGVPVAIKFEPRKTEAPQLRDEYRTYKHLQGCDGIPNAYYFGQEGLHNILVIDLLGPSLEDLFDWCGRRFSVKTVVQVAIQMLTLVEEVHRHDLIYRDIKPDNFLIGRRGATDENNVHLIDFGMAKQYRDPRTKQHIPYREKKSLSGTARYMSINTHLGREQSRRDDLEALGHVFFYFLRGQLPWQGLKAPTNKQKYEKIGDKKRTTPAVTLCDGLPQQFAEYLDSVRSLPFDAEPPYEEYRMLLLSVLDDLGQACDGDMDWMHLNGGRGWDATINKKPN

[4] = test system: J774A.1 cells infected with C. albicans (SC5314); experiment: Macrophage killing assay; details: for macrophage viability in co-culture: 30 µM
[5] = test system: echinocandin-resistant C. albicans strain (DPL15; FKS1^T1922C/FKS1^T1922C); experiment: Caspofungin potentiation dose-response assay in echinocandin-resistant strain; details: sub-inhibitory caspofungin (3 µg/mL); YPD, 30 °C, 48 h
[6] = test system: C. albicans (TEF1p-GFP) in J774A.1 cells; experiment: Visualization of C. albicans filamentation in macrophages; details: 4 h incubation; 0.94, 7.5 or 30 µM
[7] = test system: C. albicans (FKS1^T1922C/FKS1^T1922C Eno1-GFP); experiment: HepG2 / C. albicans co-culture: fungal burden by GFP fluorescence
HepG2-fLuc cells = experiment: HepG2 / C. albicans co-culture: HepG2 survival by luminescence
[8] = Plasma, kidney and brain exposure in mice; details: 50 mg/kg oral
[9] = Tolerability on repeated oral dosing in uninfected mice; details: 25 mg/kg once daily over 3 days
[10] = Plasma pharmacokinetic profiling in mice; details: female, CD1, mouse, in vivo, po, 25 mg/kg, maximal plasma concentration (Cmax), 25 mg/kg p.o.

Sequence of human CK1α (P48729 whole entry, the tested form may be a part): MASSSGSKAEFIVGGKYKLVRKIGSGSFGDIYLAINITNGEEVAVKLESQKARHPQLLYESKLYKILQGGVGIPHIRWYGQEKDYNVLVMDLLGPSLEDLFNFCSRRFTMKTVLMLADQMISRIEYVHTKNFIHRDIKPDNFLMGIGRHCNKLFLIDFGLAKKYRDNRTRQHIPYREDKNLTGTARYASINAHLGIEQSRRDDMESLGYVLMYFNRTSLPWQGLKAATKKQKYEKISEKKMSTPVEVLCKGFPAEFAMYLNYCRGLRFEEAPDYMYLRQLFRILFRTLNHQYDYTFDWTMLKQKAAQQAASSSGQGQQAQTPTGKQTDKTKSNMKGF

SMILES	MIC80 (C. albicans (CaSS1)) [µM]	whole-cell antifungal activity against C. albicans (C. albicans (CaSS1))	remaining at 0.5 h, 1 µM [1] [%]	pIC50 (human CK1α)	pIC50 [3]	other results
Oc1ccn2nc(-c3ccc(F)cc3)c(-c3ccncc3)c2c1 [Compound 2k]	> 100	no measurable whole-cell activity				
Cc1ccn2c(-c3ccncc3)c(-c3ccc(F)cc3)nc2c1 [Compound 1a]	> 100		0	5.77	6.20	metabolic stability category ([1]; 30 minutes, 1 μM): unstable (compound concentration remaining in the microsomal suspension after incubation for 30 minutes was ≤ 50% of the starting concentration (1 μM)); Fungal selectivity (fold) [2]: 2.6 fold
Fc1ccc(-c2nn3cc(C(F)(F)F)ccc3c2-c2ccncc2)cc1 [Compound 2c]	> 100	little to no whole-cell antifungal activity; also recorded: loss of bioactivity			< 6.00	CaYck2 IC50 [3]: above the maximum concentration tested
Fc1ccc(-c2nc3cc(F)ccn3c2-c2ccncc2)cc1 [Compound 1f]	50 (≈ 15.4 µg/mL)	robust anti-C. albicans bioactivity	75	5.85		macrophage viability in co-culture [4]: restoring full viability; reduction in MIC80 upon addition of caspofungin [5]: ≥ 4 fold; filamentation of C. albicans [6]: inhibited filamentation; C. albicans in co-culture relative to compound-free controls ([7]; at or above 6.25 µM): ~ 50%; rescue of HepG2 viability (HepG2-fLuc cells; at or above 6.25 µM): partially rescued HepG2 viability
CC(C)(C)c1ccn2c(-c3ccncc3)c(-c3ccc(F)cc3)nc2c1 [Compound 1c]	> 100		67	5.21	6.15	Fungal selectivity (fold) [2]: 8.6 fold
Oc1ccc2c(-c3ccncc3)c(-c3ccc(F)cc3)nn2c1 [Compound 2e]	> 100	no measurable whole-cell activity				
Fc1ccc(-c2nn3cccc(F)c3c2-c2ccncc2)cc1 [Compound 2m]	25 (≈ 7.68 µg/mL)					Fungal selectivity (fold) [2]: 27 fold
CCCc1ccn2c(-c3ccncc3)c(-c3ccc(F)cc3)nc2c1 [Compound 1i]	> 100		0			
N#Cc1cccn2nc(-c3ccc(F)cc3)c(-c3ccncc3)c12 [Compound 2o]		little to no whole-cell antifungal activity		< 4.82	< 6.00	CaYck2 IC50 [3]: above the maximum concentration tested
N#Cc1ccn2c(-c3ccncc3)c(-c3ccc(F)cc3)nc2c1 [Compound 1e]	50 (≈ 15.7 µg/mL)	robust anti-C. albicans bioactivity	80			macrophage viability in co-culture [4]: restoring full viability; pIC50 ([4]; Mus musculus, J774.A1, 24 h, read-out: IC50 of rescuing macrophage viability): 5.18; brain penetration [8]: accumulated in brain tissue at levels higher than the systemic circulation; reduction in MIC80 upon addition of caspofungin [5]: ≥ 32 fold; filamentation of C. albicans [6]: inhibited filamentation; changes in animal weight or behavior [9]: no changes in animal weight or behavior were observed; Cmax [10]: ~36 µM; concentration clearing the majority of co-cultured C. albicans ([7]; 48 h co-culture with HepG2): 6.25 µM
Fc1ccc(-c2nn3cc(F)ccc3c2-c2ccncc2)cc1 [Compound 2b]	25 (≈ 7.68 µg/mL)	robust anti-C. albicans bioactivity				macrophage viability in co-culture [4]: restoring full viability; reduction in MIC80 upon addition of caspofungin [5]: ≥ 32 fold; filamentation of C. albicans [6]: inhibited filamentation; concentrations giving mild reduction in HepG2 viability (HepG2-fLuc cells): > 12.5 µM

From PMC11880385 (Nature Communications, 2025)
